Measured values: US6858585B1, “Cyclic depsipeptides and drugs containing the same as the active ingredient” (Nisshin Seifun Group Inc., priority 1996, dated 2005)
No end group written: not given here.

Tests used:
Assay type in all cases: cell-based, human
[1] = tested on: apolipoprotein E production in Hep G2 cells; test: Production of apolipoprotein E in Hep G2 cells, enzyme immunoassay of cultured broth (Example 2: 7 h with compound); conditions: Conc. 1 μM, control = 100
Experimental: The mouse antihuman apolipoprotein E monocional antibody (manufactured by BYOSIS, S. A., France) was dissolved in a 0.05M aqueous sodium hydrogencarbonate solution (pH 9.5) at a concentration of […]. 50 μl of this solution was poured in portions into a Nunk immunoplate, which was then allowed to stand at 4° C. for 16 hours. After washing thrice with 300 μl of PBS, 300 μl of the blocking solution was added and the mixture was allowed to stand at 37° C. for 2 hours.
It was again washed three times with 300 μl of PBS, 50 μl of the above cultured broth 1 was added and the mixture was allowed to stand at room temperature for 2 hours. After washing three times with 300 μl of PBS-T, 50 μl of a 3000-fold diluted solution (10% aqueous Block Ace solution) of goat anti-apolipoprotein E polyclonal antibody (manufactured by Chemicon Co., Ltd., U.S.A.) was added and the mixture was allowed to stand at room temperature for 2 hours. […] The reaction was discontinued by the addition of 100 μl of 2N sulfuric acid, and absorbance at 490 nm was measured using absorbance at 650 nm as a control. An absolute amount of apolipoprotein E in cultured broths 1-6 was determined upon a calibration curve drawn up when a commercially available apolipoprotein E (Chemicon Co., Ltd., U.S.A.) was used as a standard. […]

[2] = tested on: apolipoprotein B production in Hep G2 cells; test: Production of apolipoprotein B in Hep G2 cells, enzyme immunoassay of cultured broth (Example 2); conditions: Conc. 1 μM, 7 hours, control = 100
Experimental: (§1) First, 1 ml portions of Hep G2 cells at 1×10^5 cells/ml suspended in D-MEM medium containing 10% fetal bovine serum were poured into a 24-well tissue culture plate and cultivation was carried out at 37° C. under atmosphere of a mixed gas composed of 5% carbon dioxide and 95% air for 3 days. Thereafter, the medium was removed by means of a pipette, 1 ml of fresh D-MEM medium was added and cultivation was again carried out at 37° C. under atmosphere of a mixed gas composed of 5% carbon dioxide and 95% air for one day. Then, the medium was removed by means of a pipette and washed three times with 0.5 ml of fresh D-MEM medium. […]
The sheep antihuman apolipoprotein B IgG fraction (manufactured by Bindingsite Co., Ltd., U.K.) was dissolved in a 0.05M aqueous sodium hydrogencarbonate solution (pH 9.5) at a concentration of 10 μg/ml. […] The reaction was discontinued by the addition of 100 μl of 2N sulfuric acid, and absorbance at 490 nm was measured using absorbance at 650 nm as a control. The absorbance obtained was defined as that of apolipoprotein B. An absolute amount of apolipoprotein B was determined upon a calibration curve drawn up when a commercially available low density lipoprotein (manufactured by Sigma, U.S.A.) was used as a standard. […]

[3] = tested on: apolipoprotein A1 production in Hep G2 cells; test: Production of apolipoprotein A1 in Hep G2 cells, enzyme immunoassay of cultured broth (Example 2); conditions: Conc. 1 μM, 7 hours, control = 100
Experimental: as §1, with “medium. 1 ml of fresh D-MEM medium was added and further 10 μl of a solution of the cyclic depsipeptide of the invention or Compound 1, 4, 5, 6, 7 or 8 dissolved in methanol at the concentration as shown in Table 3 was added.” for “medium.”
It was again washed three times with 300 μl of PBS, 100 μl of the above Cultured Broths 7-10 was added and the mixture was allowed to stand at room temperature for 2 hours. […] The reaction was discontinued by the addition of 100 μl of 2N sulfuric acid, and absorbance at 490 nm was measured using absorbance at 650 nm as a control. An absolute amount of apolipoprotein A1 was determined upon a calibration curve drawn up when a commercially available apolipoprotein Al (manufactured by Sigma, U.S.A.) was used as a standard. […]

Compound 7 (QLLVDLI; ester (positions not given here); also: cyclic depsipeptide, ring closure places not given here)
Relative amount of apolipoprotein E (%) [1]: 163% | Relative amount of apolipoprotein B (%) [2]: 76% | Relative amount of apolipoprotein A1 (%) [3]: 135%
